Columns and labels:
hippocampal neurons = assay: Heavy metal toxicity in hippocampal cultures, neuronal viability (CFDA); details: test concentration of metal ions 10 μM, medium without antioxidants
From the text: All compounds were screened with dissociated hippocampal cultures derived from embryonic day 18 rats as the primary test system. With this preparation, primary neurons were used to test for prevention of heavy metal toxicity by the disclosed compounds. In brief, hippocampal tissue was obtained commercially through Brain Bits (Springfield, Ill.) and cultures prepared as previously described (Brewer, G. J. Serum-free B27/neurobasal medium supports differentiated growth of neurons from the striatum, substantia nigra, septum, cerebral cortex, cerebellum and dentate gyms, J. Neurosci. Res., 1995, 42, 674-683). The hippocampal neurons were platted at low density (10,000 cell/well) in a 96-well format and maintained in serum-free medium consisting of Neurobasal Medium supplemented with B27 and GlutaMAX (Gibco). Pre-coated poly-L-lysine coated plates are used because of the preferential adherence and survival of hippocampal neurons on this matrix support.
Heavy metal toxicity is associated with the occurrence of seizures (Mathie et al. Zinc and copper: pharmacological probes and endogenous modulators of neuronal excitability. Pharmacol. Ther. 2006, 111, 567-583). […] To establish the dose-dependency of test agents, day 18 hippocampal cultures were utilized to study the toxicity produced after treatment with the heavy metals and neuroprotection after treatment with test compounds. […] Prior to treatment, the B27/Neural Basal media of the cultures were replaced with B27 neural basal medium without antioxidants for 18 hours. […] Further, the removal of antioxidants in the medium was performed to obtain a significant and reproducible toxic signal for heavy metal treatment of the hippocampal neurons.
Toxicity produced by heavy metals is measured by decreases in neuronal viability. Carboxyfluorescein (CFDA) was used a vital stain for all cell toxicity and neuroprotection studies. With the use of the CytoFluor fluorimeter, the CFDA assay was employed to assess the viability of neurons. CFDA is a dye that becomes fluorescent upon cell entry and cleavage by cytosolic esterases (Petroski and Geller. Selective labeling of embryonic neurons cultures on astrocyte monolayers with 5(6)-carboxyfluorescein diacetate [CFDA]. J. Neurosci. Methods 1994, 52, 23-32). Neuronal specificity is obtained relative to astrocytes because the cleaved dye is extruded extracellularlly by glia with time, while dye in neurons remains intracellular.

Hippocampal Cultures [1] = assay: Neuroprotection from glutamate excitotoxicity, propidium iodide (cell death) assay; format: cell-based; details: Rattus norvegicus, read-out: NP from Glutamate PI EC50
From the text: (§1) Cell cultures: All compounds are screened with dissociated hippocampal cultures derived from embryonic day 18 rats as the primary test system. With this preparation, primary neurons are used to test for toxicity as well as neuroprotection in a highly relevant experimental system to epilepsy. In brief, hippocampal tissue are obtained commercially through Brain Bits (Springfield, Ill.) and cultures prepared as previously described by Brewer (Brewer, G. J. Serum-free B27/neurobasal medium supports differentiated growth of neurons from the striatum, substantia nigra, septum, cerebral cortex, cerebellum and dentate gyms, J. Neurosci. Res. 1995, 42, 674-683). The hippocampal neurons are platted at low density (10,000 cell/well) in a 96-well format and maintained in serum-free medium consisting of Neurobasal Medium supplemented with B27 and GlutaMAX (Gibco). Pre-coated poly-L-lysine coated plates are used because of the preferential adherence and survival of hippocampal neurons on this matrix support.
(§2) Potent neuroprotection is the distinguishing characteristic that separates this program's anticonvulsants from all other commercial drugs for epilepsy. The experimental details and the rationale for the implemented assays are essential in differentiating these compounds from that of others. The central objective of all neuroprotective assays was their relevancy to excitotoxicity and oxidative stress related to epilepsy. Both the amount of glutamate and hydrogen peroxide used in the assays, as well as the time of treatment and duration of the experiment, were designed to be relevant to epilepsy. Further, all time parameters employed in these studies were empirically determined to be within the limits of reversible toxic events, yet using amounts of glutamate and hydrogen peroxide that were relevant to the disease. In regard to glutamate toxicity, a critical feature was the duration of treatment of the hippocampal neurons. The rational for using a short 5 min treatment with glutamate was based on the observation of Randall and Thayer (Randall, R. D.; Thayer, S. A. Glutamate-induced calcium transient triggers calcium overload and neurotoxicity in rat hippocampal neurons, J. Neurosci. 1992, 12, 1882-1895). […] The rationale is that this intense burst of glutamate and resulting calcium overload is relevant to seizures and therefore was important data to capture in the screening assay. The amount of glutamate (30 μM) employed in our screening was based on the basal levels of glutamate observed in microdialysis measurements of hippocampus from epileptogenic patients (Cavus et al. Decreased hippocampal volume on MRI is associated with increased extracellular glutamate in epilepsy patients, Epilepsia, 2008, 49, 1358-1366). In regard to hydrogen peroxide, the amount employed (10 μM) was detected in the hippocampus of rats after kainate-induced status epilepticus (Jarrett et. al., Mitochondrial DNA damage and impaired base excision repair during epileptogenesis, Neurobiol. Dis. 2008, 30, 130-138). To produce neural damage and death with these amounts of glutamate and hydrogen peroxide, the cultures were changed to a medium with significant depletion of antioxidant components in the defined medium supplement B-27 just prior to treatment with the compounds. This was performed to obtain a significant and reproducible toxic signal in the hippocampal neurons and because loss of antioxidant control may be a component of epileptogenesis (Waldbaum and Patel, Mitochondria, oxidative stress and temporal lobe epilepsy, Epilepsy Res. 2010 88, 23-45; Wu et al., Mitochondrial DNA mutation-elicited oxidative stress, oxidative damage, and altered gene expression in cultured cells of patients with MERRF syndrome, Mol. Neurobiol. 2010, 41, 256-266). Neuroprotection studies with hydrogen peroxide were conducted with cultures that were between day 12 and day 18. Studies of neuroprotection glutamate were conducted between day 19 and day 22. […]

Hippocampal Cultures [2] = assay: Neuroprotection from hydrogen peroxide (oxidative stress), propidium iodide assay; format: cell-based; details: Rattus norvegicus, read-out: NP from Hydrogen Peroxide PI EC50
From the text: as §1, §2

Hippocampal Cultures [3] = assay: Neuroprotection from glutamate excitotoxicity, CFDA (neuronal viability) assay; format: cell-based; details: Rattus norvegicus, read-out: NP from Glutamate CFDA EC50
From the text: as §1
as §2, with “compounds.” for “compounds. This was performed to obtain a significant and reproducible toxic signal in the hippocampal neurons and because loss of antioxidant control may be a component of epileptogenesis (Waldbaum and Patel, Mitochondria, oxidative stress and temporal lobe epilepsy, Epilepsy Res. 2010 88, 23-45; Wu et al., Mitochondrial DNA mutation-elicited oxidative stress, oxidative damage, and altered gene expression in cultured cells of patients with MERRF syndrome, Mol. Neurobiol. 2010, 41, 256-266). Neuroprotection studies with hydrogen peroxide were conducted with cultures that were between day 12 and day 18. Studies of neuroprotection glutamate were conducted between day 19 and day 22.”

Hippocampal Cultures [4] = assay: Neuroprotection from hydrogen peroxide (oxidative stress), CFDA assay; format: cell-based; details: Rattus norvegicus, read-out: NP from Hydrogen Peroxide CFDA EC50
From the text: as §1, §2

[5] = system: MES-induced seizure spread; assay: Maximal electroshock seizure (MES) test, rat; format: in vivo, rats; details: po
Procedure: (§3) Seizure-related assays, Maximal electroshock test: The most definitive assay for anti-seizure activity is the maximal electroshock (MES) test (Swinyard, E. A. Laboratory evaluation of antiepileptic drugs: review of laboratory methods, Epilepsia, 1969, 10, 107-119). […] With both rodent assays, the duration of action is of high importance as well as the potency of the response.
(§4) Methods to measure anticonvulsant activity: All tests were conducted by the Anticonvulsant Screening Program (ASP) of the National Institute of Neurological Disease and Stroke at the National Institutes of Health.
(§5) The Maximal Electroshock Seizure (MES) or Maximal Seizure Pattern Test: The MES is a model for generalized tonic-clonic seizures (Putnam and Merritt. Experimental determination of the anticonvulsant properties of some phenyl derivatives. Science 1937, 85, 113-118). It is highly reproducible with consistent endpoints. The behavioral and electrographic seizures generated in this model are consistent with the human disorder. This model identifies those compounds which prevent seizure spread.
(§6) In the MES test, an electrical stimulus of 0.2 s in duration (50 mA in mice and 150 mA in rat at 60 Hz) is delivered via corneal electrodes primed with an electrolyte solution containing an anesthetic agent. Mice are tested at 30 minutes and 4 hours following doses of 30, 100 and 300 mg/kg of test compound. Test compounds are administered intraperitoneally to the mice. Rats are tested at time intervals between 0.25 and 4 hours following a standard oral dose of 30 mg/kg. Abolition of the hindlimb tonic extensor component indicates the test compound's ability to inhibit MES-induced seizure spread.

[6] = system: pentylenetetrazol-induced clonic seizures; assay: Subcutaneous pentylenetetrazol seizure test (scPTZ), mouse; format: in vivo, Carworth Farms No. 1 mice; details: pentylenetetrazol 85 mg/kg s.c., test compound intraperitoneally, read-out: Mouse PTZ ED50, s.c.
Procedure: Methods to measure anticonvulsant activity: All tests were conducted by the Anticonvulsant Screening Program (ASP) of the National Institute of Neurological Disease and Stroke at the National Institutes of Health. The subcutaneous pentylenetetrazol (metrazol) seizure test (scPTZ). This model primarily identifies compounds that raise seizure threshold. The behavioral seizure produced is not typical of absence epilepsy but clonic in nature. With some minor exceptions, the pharmacological profile of the scPTZ seizure model is consistent with the human condition. The scPTZ test utilizes a dose of pentylenetetrazol (85 mg/kg in Carworth Farms No. 1 mice and 70 mg/kg in Sprague-Dawley rats). This produces clonic seizures lasting for a period of at least five seconds in 97 percent of animals tested. At the anticipated time of testing the convulsant is administered subcutaneously. The test compound is administered intraperitoneally in mice and orally in rats. Animals are observed over a 30 minute period. Absence of clonic spasms in the observed time period indicates a compound's ability to abolish the effect of pentylenetetrazol on seizure threshold (Swinyard E A. Laboratory evaluation of antiepileptic drugs: review of laboratory methods. Epilepsia, 1969, 10, 107-119).

6-Hz psychomotor seizure = assay: 6 Hz psychomotor seizure test, mouse; format: in vivo, mice; details: ip
Procedure: Methods to measure anticonvulsant activity: All tests were conducted by the Anticonvulsant Screening Program (ASP) of the National Institute of Neurological Disease and Stroke at the National Institutes of Health. The 6 Hz Seizure Test: Compounds were further tested in the 6-Hz psychomotor seizure model. (Barton et al. Pharmacological characterization of the 6 Hz psychomotor seizure model of partial epilepsy. Epilepsy Res. 2001, 47, 217-227). This model is used to detect […] that may be useful for the treatment of therapy-resistant partial seizures. For this test, an alternative electrical stimulation paradigm is used with a low frequency (6 Hz), long duration (3 seconds) corneal stimulation. The seizure evoked by this low frequency stimulation is characterized by immobility, forelimb clonus, Straub tail and facial automatisms. Mice are tested from 15 min to 4 hours following an intraperitoneal dose of 100 mg/kg. Abolition of the clonic seizures indicates the ability of a compound to prevent partial or psychomotor seizures.

[7] = system: MES-induced seizure spread; assay: Maximal electroshock seizure (MES) test, mouse; format: in vivo, mice
Procedure: as §3, §4, §5, §6

[8] = 30 μM glutamate 5 min, hippocampal cultures, 4 hour test period
[9] = 10 μM hydrogen peroxide, hippocampal cultures, 4 hour test period

Compound | Loss of neuronal viability from metal (hippocampal neurons) [%] | EC50 (Hippocampal Cultures [1]) [pM] | EC50 (Hippocampal Cultures [2]; 4 h) [pM] | EC50 (Hippocampal Cultures [4]; 4 h) [pM] | further results
O.O.O.O.O.O.[Cl-].[Cl-].[Co+2] [Cobalt Chloride hexahydrate] | 36 |  |  |  | 
CC(=O)[O-].CC(=O)[O-].O.[Cu+2] [Copper Acetate monohydrate] | 47 |  |  |  | 
NS(=O)(=O)NCC(F)c1ccccc1F (stereo not drawn) [Example 3, 2-Fluoro-2-(2-fluoro-phenyl)-ethylsulfamide] |  | 100 | 10 | 10 | EC50 (Hippocampal Cultures [3]): 3000 pM
COc1ccccc1C(F)(F)CNS(N)(=O)=O [Example 4, 2,2-Difluoro-2-(2-methoxyphenyl)-ethyl-1-sulfamide] |  | 1000 | 1000 | 100 | 
NS(=O)(=O)NCC(F)(F)c1ccccc1 [Example 5, 2,2-difluoro-2-phenyl-ethyl-1-sulfamide] |  |  |  |  | ED50 [5]: 26 mg/kg; ED50 [6]: 41 mg/kg; ED50 (6-Hz psychomotor seizure): 16 mg/kg; EC50 (Hippocampal Cultures [1]; [8]): 100 pM; EC50 (Hippocampal Cultures [2]; [9]): 30 pM; Duration of action MES ([7]; Mouse Maximal Electroshock (MES) test at 100 mg/kg, i.p.): 4 h; ED50 ([7]; ip, mouse): 49 mg/kg; EC50 (Hippocampal Cultures [3]; [8]): 100 pM; EC50 (Hippocampal Cultures [4]; [9]): 100 pM
NS(=O)(=O)NCC(F)(F)c1csc2ccccc12 [Example 6, 2-Benzo[b]thiophen-3-yl-2,2-difluoro-ethyl sulfamide] |  | 100 | 1000 | 100 | EC50 (Hippocampal Cultures [3]): 100 pM
O.O.O.O.O.O.O=S(=O)([O-])[O-].[Fe+2] [Iron sulfate hexahydrate] | 31 |  |  |  | 
O.O.O.O.O.O.[Cl][Ni][Cl] [Nickel Chloride hexahydrate] | 33 |  |  |  | 

Reference: patent publication US20130253022A1 (FOX CHASE CHEMICAL DIVERSITY CENTER, INC., priority 2010, published 2013)
